Laboratory results as given in US8586125B2, “Thermal treatment of an implantable medical device” (Advanced Cardiovascular Systems, Inc., priority 1999, dated 2013).

Assays:
[1] = Release Rate Profile Procedure (in vitro, HPLC); type: physicochemical; details: as demonstrated in Example 53
Protocol: This Example 41 is referred to as the “Release Rate Profile Procedure.” A drug-coated stent was placed on a stent holder of a Vankel Bio-Dis release rate tester (Vankel, Inc., Cary, N.C.). The stent was dipped into an artificial medium which stabilizes the 40-O-(2-hydroxy)ethyl-rapamycin in the testing solution, including a phosphate buffer saline solution (10 mM, pH 7.4) with 1% TRITON X-100 (Sigma Corporation), for a designated amount of time (e.g., 3 hours). Then the solution was analyzed for the amount of drug released from the stent coating using an HPLC process. The HPLC system consisted of a Waters 2690 system with an analytical pump, a column compartment (set at 40° C.), an auto-sampler, and a 996 PDA detector. The column was an YMC Pro C18 (150 mm×4.6 I.D., 3 μm particle size), maintained at a temperature of 40° C. The mobile phase consisted of 75% acetonitrile and 25% 20 mMolar ammonium acetate. […] After the drug solution was analyzed by HPLC the results were quantified by comparing the release rate results with a reference standard.
If the experimental protocol required that the stent coating be subjected to experimental conditions for an additional time, the stent was then dipped in a fresh medium solution for the necessary amount of time (e.g., another 3 hours) and the drug released in the solution was analyzed again according to the HPLC procedure described above. […]

[2] = Release rate from a standard polymeric coating; type: physicochemical; details: in about 24 hours
Excerpt: Another potential shortcoming of the foregoing method of medicating stents is that the release rate of the active agent may be too high to provide an efficacious treatment. This shortcoming may be especially pronounced with certain active agents. […] Thus, there is a need for a coating that reduces the release rate of active agents in order to provide a more efficacious release rate profile.

coronary arteries = assay: Cephalotaxin/EVOH coated stents implanted in porcine coronary arteries; type: in vivo, pigs; details: cephalotaxin coated vs uncoated and EVOH coated stents; estimated 33 μg cephalotaxin per stent
Protocol: Multi-Link™ stents were cleaned by placement in an ultrasonic bath of isopropyl alcohol solution for 10 minutes. The stents were dried and plasma cleaned in a plasma chamber. An EVOH solution was made with 1 gram of EVOH and 7 grams of DMSO, making an EVOH:DMSO ratio of 1:7. Cephalotaxin was added to the 1:7 EVOH:DMSO solution. Cephalotaxin constituted 5% by weight of the total weight of the solution. The solution was vortexed and placed in a tube. The cleaned Multi-Link™ stents were attached to mandrel wires and dipped into the solution. The coated stents were passed over a hot plate, for about 3-5 seconds, with a temperature setting of about 60° C. The coated stents were cured for 6 hours in an air box then placed in a vacuum oven at 60° C. for 24 hours. The above process was repeated twice, having a total of three layers. The average weight of the coating was 0.00013 gram, with an estimated cephalotaxin concentration of 33 μg. The stents were sterilized by electron beam radiation. […]

decrease of the release rate by thermal treatment as compared to a control group [1] | release rate from a standard polymeric coating [2] | SMILES | amount of neointimal proliferation resulting from arterial injury (coronary arteries)
about 50% | greater than 50% | CO[C@H]1C[C@@H]2CC[C@@H](C)[C@@](O)(O2)C(=O)C(=O)N2CCCC[C@H]2C(=O)O[C@H]([C@H](C)C[C@@H]2CC[C@@H](OCCO)[C@H](OC)C2)CC(=O)[C@H](C)/C=C(\C)[C@@H](O)[C@@H](OC)C(=O)[C@H](C)C[C@H](C)/C=C/C=C/C=C/1C [40-O-(2-hydroxy)ethyl-rapamycin] | –
– | – | COC1=C[C@]23CCCN2CCc2cc4c(cc2[C@@H]3[C@@H]1O)OCO4 [cephalotaxin, Cephalotaxin] | no significant difference
